This experiment addresses T1, recombinant human MetAP2 (Homo sapiens, UniProt P50579).
T1 construct: made in house; host or cells: Sf9 insect cells
The experiment is described as follows: Inhibition of recombinant human MetAP2 activity (MAS substrate, amino acid oxidase/Amplex red fluorescence). The format is biochemical. Particulars: manganese enzyme, 30 minutes at 25° C., pH 7.5, 0.75 mM MAS substrate, 1% DMSO. On the procedure: Compounds are tested for their capacity to inhibit recombinant human MetAP2 activity using the following assay.
Human recombinant MetAP2 expressed in Sf9 cells followed by affinity purification and EDTA treatment to remove endogenous active site cation was dialysed against MnCl2 to produce the manganese enzyme used in the assay. The assay was carried out for 30 minutes at 25° C. in 50 mM HEPES buffer containing 100 mM NaCl, pH 7.5 the presence of 0.75 mM Methionine-Alanine-Serine (MAS) substrate and 50 μg/ml amino acid oxidase using a dilution of purified MetAP2 giving >3-fold signal:noise. Cleavage of the substrate by MetAP2 and oxidation of free methionine by amino acid oxidase was detected and quantified using fluorescence generated by Amplex red (10-acetyl-3,7-dihydroxyphenoxazine) in combination with horseradish peroxidase which detects H2O2 released during the oxidation step. The fluorescent signal was detected using a multiwell fluorimeter. Compounds were diluted in DMSO prior to addition to assay buffer, the final DMSO concentration in the assay being 1%.
The IC50 is defined as the concentration at which a given compound achieves 50% inhibition of control. IC50 values are calculated using the XLfit software package (version 2.0.5).
T1 sequence (P50579 whole entry): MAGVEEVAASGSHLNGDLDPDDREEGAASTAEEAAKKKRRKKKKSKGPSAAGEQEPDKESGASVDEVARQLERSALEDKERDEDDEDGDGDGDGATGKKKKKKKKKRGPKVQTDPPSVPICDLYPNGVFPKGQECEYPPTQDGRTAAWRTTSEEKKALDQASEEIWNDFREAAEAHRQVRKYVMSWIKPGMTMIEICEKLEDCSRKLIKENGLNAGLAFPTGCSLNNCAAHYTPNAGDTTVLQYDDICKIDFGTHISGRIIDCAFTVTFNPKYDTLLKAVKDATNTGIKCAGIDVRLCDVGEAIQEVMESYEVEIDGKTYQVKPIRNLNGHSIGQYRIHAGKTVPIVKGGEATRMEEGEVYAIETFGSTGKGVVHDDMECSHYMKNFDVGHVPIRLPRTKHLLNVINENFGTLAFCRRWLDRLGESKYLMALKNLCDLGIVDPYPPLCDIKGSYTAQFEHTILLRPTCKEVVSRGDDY
On to `CCN(CC)C/C=C\c1cc(F)ccc1S(=O)(=O)Nc1cc(F)c2c(c1C(=O)O)OCC1CC21` (racemic) [(1aRS,7bSR)-5-[2-((Z)-3-Diethylaminoprop-1-enyl)-4-fluorobenzenesulfonyl-amino]-7-fluoro-1,1a,2,7b-tetrahydrocyclopropa[c]chromene-4-carboxylic acid], for which the IC50 (commonly the concentration that gives 50% inhibition) was under 50 nM. For `CCN1CC[C@@H](Cc2cc(F)ccc2S(=O)(=O)Nc2cc(F)c3c(c2C(=O)O)OCC2CC32)C1` (mixture of isomers) [(1aRS,7bSR)-5-[2-((R)-1-Ethylpyrrolidin-3-ylmethyl)-4-fluorobenzene-sulfonylamino]-7-fluoro-1,1a,2,7b-tetrahydrocyclopropa[c]chromene-4-carboxylic acid], the concentration for half-maximal inhibition (IC50) was under 50 nM. Consider `CCN(CC)CCCc1cc(F)ccc1S(=O)(=O)Nc1cc(F)c2c(c1C(=O)O)OCC1CC21` (racemic) [(1aRS,7bSR)-5-[2-(3-Diethylaminopropyl)-4-fluorobenzenesulfonylamino]-7-fluoro-1,1a,2,7b-tetrahydrocyclopropa[c]chromene-4-carboxylic acid], for which the IC50 was over 50 nM.

As for `CCN(CC)C/C=C\c1cc(F)ccc1S(=O)(=O)Nc1c(F)cc2c(c1C(=O)O)OCC1CC21` (racemic) [(1aRS,7bSR)-5-[2-((Z)-3-Diethylaminoprop-1-enyl)-4-fluorobenzene-sulfonylamino]-6-fluoro-1,1a,2,7b-tetrahydrocyclopropa[c]chromene-4-carboxylic acid], the IC50 was over 50 nM.

The values are drawn from patent US10174009B2, “Tricyclic sulphonamide compounds and methods of making and using same” (Zafgen, Inc., priority 2012, dated 2019).
